The results in this text go back to PMC8537501 (2021).

Assay [1] relates to ds27 (DNA, hairpin) CGCGAATTCGCGTTTCGCGAATTCGCG
The experiment in a line: fluorescence titration. To be noted: 5 mM KCl.

For assay [2], the system named is tel26 (DNA, G4) TTAGGGTTAGGGTTAGGGTTAGGGTT
The experiment in a line: fluorescence titration. Conditions: 5 mM KCl.

Assay [3] concerns c-myc (DNA, G4) TGGGGAGGGTGGGGAGGGTGGGGAAGGTGGGGA
Kind of assay: fluorescence titration. To be noted: 5 mM KCl.

The test system is the same in assay [4]. The experiment in a line: CD melting, 262 nm. Conditions: 0.5 mM KCl; 0.5 mM phosphate, 5% DMSO, pH 7; 2 μM DNA, 20 μM ligand.
Assay [5] concerns ds27 (DNA, hairpin) CGCGAATTCGCGTTTCGCGAATTCGCG
The experiment in a line: CD melting, 251 nm. Conditions: 5 mM KCl; 5 mM phosphate, 5% DMSO, pH 7; 2 μM DNA, 20 μM ligand.

Assay [6] concerns tel26 (DNA, G4) TTAGGGTTAGGGTTAGGGTTAGGGTT
Kind of assay: CD melting, 290 nm. Conditions: 5 mM KCl; 5 mM phosphate, 5% DMSO, pH 7; 2 μM DNA, 20 μM ligand.

Assay [7] concerns CPG-c-myc (DNA, G4) TGGGGAGGGTGGGGAGGGTGGGGAAGGTGGGGA
Kind of assay: G4-CPG affinity chromatography. Conditions: 50 mM KCl; 10% DMSO, 10% ethanol; 600 μM ligand.

Assay [8] deals with CPG-ds27 (DNA, hairpin) CGCGAATTCGCGTTTCGCGAATTCGCG
The experiment in a line: G4-CPG affinity chromatography. Conditions: 50 mM KCl; 10% DMSO, 10% ethanol; 600 μM ligand.

In assay [9] the test system is CPG-tel26 (DNA, G4) TTAGGGTTAGGGTTAGGGTTAGGGTT
Kind of assay: G4-CPG affinity chromatography. To be noted: 50 mM KCl; 10% DMSO, 10% ethanol; 600 μM ligand.

[10] abbreviates: 5 mM phosphate, 5% DMSO, pH 7, 20 °C, 2 μM ligand, independent equivalent-sites model.

The ΔTm is the change in melting temperature against a reference sample. With `CN1Cc2c(ccc3c2OCO3)[C@@H]2[C@H]1c1cc3c(cc1C[C@@H]2O)OCO3`, the binding result in [1] (5 mM phosphate, 5% DMSO, pH 7, 20 °C, 2 μM ligand, DNA up to 10 μM) is reported as “no”; in assay [2] (5 mM phosphate, 5% DMSO, pH 7, 20 °C, 2 μM ligand, quenching, not fitted), “yes”; in [3] (5 mM phosphate, 5% DMSO, pH 7, 20 °C, 2 μM ligand, enhancement then quenching, not fitted), “yes”. For the same compound, the values for the ΔTm result in assay [4], in [5] and in [6] were “+13 °C”, −1 °C and “+4 °C”, respectively.

Turning to `CC1=C2C(=O)[C@H]3[C@@H](CC=C4C[C@@H](O)CC[C@@]43C)[C@@H]2CC[C@]12O[C@@H]1C[C@H](C)CN[C@H]1[C@H]2C`, the binding result in [7], in [8] and in [9] was “yes” throughout.

On to `COc1cc2cc3c(c(O)c2c2c1C=CC(C)(C)O2)C(=O)CC(C)(O)C3` (stereo not shown), for which the binding entry in [7] and in [9] was “weak” in each case.

Regarding `COC(=O)[C@@H]1[C@H]2C[C@H]3c4[nH]c5ccccc5c4CCN3C[C@@H]2CC[C@@H]1O`, in assay [7], the binding result was “weak”.

For the compound `CC[C@H]1CN2CCc3cc(OC)c(OC)cc3[C@@H]2C[C@@H]1C[C@H]1NCCc2cc(OC)c(OC)cc21`, the binding result in assay [7], in assay [8] and in [9] was “yes” in each case.

Regarding `CC(C)=CCC1=C(O)c2c(cc3cc(C)cc(O)c3c2O)C(CC=C(C)C)(CC=C(C)C)C1=O`, the binding entry in assay [7] and in assay [9] was “weak” throughout.

`CN1CC[C@]23C(=O)C[C@H]4C(=CCO[C@H]5CC(=O)N(c6c(O)cccc62)[C@H]3[C@H]54)C1`: the binding entry in assay [7] and in [9] was “yes” in each case. For the same compound, the thermal shift (ΔTm) result is “+5 °C” in assay [4], −3 °C in assay [5] and 0 °C in [6].

Take `CC(C)=CCc1c(C)cc2cc3c(c(O)c2c1O)C(=O)C=C(O)C3(CC=C(C)C)CC=C(CO)CO` (stereo not shown): the binding entry in assay [7] and in [9] was “weak” throughout.

Turning to `CC(C)(O)CC[C@@H](O)[C@](C)(O)[C@H]1CC[C@@]2(O)C3=CC(=O)[C@@H]4C[C@@H](O)[C@@H](O)C[C@]4(C)[C@H]3CC[C@]12C`, in assay [9], the binding result is “weak”.

Take `COc1ccc2c(c1O)-c1c3c(cc4c1[C@H](C2)N(C)CC4)OCO3`: the Kb in assay [1] (setting [10]) was 1.2 (±0.6) × 10^6 M^-1; in assay [2] (setting [10]) it was 1.0 (±0.4) × 10^6 M^-1; in assay [3] (setting [10]), 1.1 (±0.4) × 10^6 M^-1. In assay [4], the thermal shift (ΔTm) entry was “+9 °C”.

In the case of `CC[C@H]1C[C@@H]2C[C@H]3c4[nH]c5ccc(OC)cc5c4CCN(C2)[C@@H]13`, the Kb in [1] is 3.7 (±0.7) × 10^5 M^-1; in assay [2], 4.1 (±0.8) × 10^5 M^-1; in assay [3], 3.9 (±0.7) × 10^5 M^-1. The thermal shift (ΔTm) in assay [5] is 0 °C; in [6] it was “+2 °C”.
